# Test results from patent US10526336B2, “Fused heteroaryl derivatives as orexin receptor antagonists” (Merck Sharp & Dohme Corp., priority 2014, dated 2020).
# pIC50: −log10 of the molar value.
# Biological target: human orexin-2 receptor (Homo sapiens (Human), UniProt O43614)
# Assay: FLIPR Ca2+ Flux Assay, orexin-2 receptor antagonism in CHO cells
# Type: cell-based
# Conditions: CHO cells expressing the human orexin-2 receptor; agonist 70 pM Ala-6,12 orexin-A; read-out: hOX2 FLIPR IC50
# Procedure: The utility of the compounds in accordance with the present invention as orexin receptor OX1R and/or OX2R antagonists may be readily determined without undue experimentation by methodology well known in the art, including the “FLIPR Ca^2+ Flux Assay” (Okumura et al., Biochem. Biophys. Res. Comm. 280:976-981, 2001). In a typical experiment the OX1 and OX2 receptor antagonistic activity of the compounds of the present invention was determined in accordance with the following experimental method. For intracellular calcium measurements, Chinese hamster ovary (CHO) cells expressing the rat orexin-1 receptor or the human orexin-2 receptor, are grown in Iscove's modified DMEM containing 2 mM L-glutamine, […], 1% hypoxanthine-thymidine supplement, 100 U/ml penicillin, 100 μg/ml streptomycin and 10% heat-inactivated fetal calf serum (FCS). The cells are seeded at 20,000 cells/well into Becton-Dickinson black 384-well clear bottom sterile plates coated with poly-D-lysine. All reagents are from GIBCO-Invitrogen Corp. The seeded plates are incubated overnight at 37° C. and 5% CO2. Ala-6,12 human orexin-A as the agonist is prepared as a 1 mM stock solution in 1% bovine serum albumin (BSA) and diluted in assay buffer (HBSS containing 20 mM HEPES, 0.1% BSA and 2.5 mM probenecid, pH7.4) for use in the assay at a final concentration of 70 pM. Test compounds are prepared as 10 mM stock solution in DMSO, then diluted in 384-well plates, first in DMSO, then assay buffer. On the day of the assay, cells are washed 3 times with 100 μl assay buffer and then incubated for 60 min (37° C., 5% CO2) in 60 μl assay buffer containing […] Fluo-4AM ester, 0.02% pluronic acid, and 1% BSA. The dye loading solution is then aspirated and cells are washed 3 times with 100 μl assay buffer. 30 μl of that same buffer is left in each well. Within the Fluorescent Imaging Plate Reader (FLIPR, Molecular Devices), test compounds are added to the plate in a volume of 25 μl, incubated for 5 min and finally 25 μl of agonist is added. Fluorescence is measured for each well at 1 second intervals for 5 minutes and the height of each fluorescence peak is compared to the height of the fluorescence peak induced by 70 pM Ala-6,12 orexin-A with buffer in place of antagonist. For each antagonist, IC50 value (the concentration of compound needed to inhibit 50% of the agonist response) is determined. Alternatively, compound potency can be assessed by a radioligand binding assay (described in Bergman et. al. Bioorg. Med. Chem. Lett. 2008, 18, 1425-1430) in which the inhibition constant (Ki) is determined in membranes prepared from CHO cells expressing either the OX1 or OX2 receptor. The intrinsic orexin receptor antagonist activity of a compound which may be used in the present invention may be determined by these assays.
# human orexin-2 receptor, sequence (O43614 whole entry): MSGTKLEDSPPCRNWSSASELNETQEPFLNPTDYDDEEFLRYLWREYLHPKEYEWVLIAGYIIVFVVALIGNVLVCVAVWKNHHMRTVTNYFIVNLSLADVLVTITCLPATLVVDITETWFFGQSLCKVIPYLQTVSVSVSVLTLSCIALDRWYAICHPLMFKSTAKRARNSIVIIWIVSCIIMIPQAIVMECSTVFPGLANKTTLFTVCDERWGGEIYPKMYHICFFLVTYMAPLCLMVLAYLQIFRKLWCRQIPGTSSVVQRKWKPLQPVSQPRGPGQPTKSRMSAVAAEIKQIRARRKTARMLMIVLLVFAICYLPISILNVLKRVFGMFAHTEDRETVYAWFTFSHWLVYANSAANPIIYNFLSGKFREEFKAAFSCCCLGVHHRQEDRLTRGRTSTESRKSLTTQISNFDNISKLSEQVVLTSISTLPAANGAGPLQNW
row,Compound,pIC50
1,"COC(=O)c1ccccc1C(=O)N1C[C@H](Oc2nccn3c(C(F)F)cnc23)CC[C@H]1C [Example 48, methyl 2-((2R,5R)-5-((3-(difluoromethyl)imidazo[1,2-α]pyrazin-8-yl)oxy)-2-methylpiperidine-1-carbonyl)benzoate]",7.60
2,"C[C@@H]1CC[C@@H](Oc2nccn3ccnc23)CN1C(=O)c1ccccc1CC(F)(F)F [Example 3, ((2R,5R)-5-(imidazo[1,2-α]pyrazin-8-yloxy)-2-methylpiperidin-1-yl)(2-(2,2,2-trifluoroethyl)phenyl)methanone]",7.30
3,"Cc1cn2ccnc(O[C@@H]3CC[C@@H](C)N(C(=O)c4ccccc4-n4nccn4)C3)c2n1 [Example 6, (2-(2H-1,2,3-triazol-2-yl)phenyl)((2R,5R)-2-methyl-5-((2-methylimidazo[1,2-a]pyrazin-8-yl)oxy)piperidin-1-yl)methanone]",8.10
4,"C[C@@H]1CC[C@@H](Oc2nccn3ccnc23)CN1C(=O)c1ccccc1CS(C)(=O)=O [Example 2, ((2R,5R)-5-(imidazo[1,2-a]pyrazin-8-yloxy)-2-methylpiperidin-1-yl)(2-((methylsulfonyl)methyl)phenyl)methanone]",7.23
5,"C[C@@H]1CC[C@@H](Oc2cccn3c(=O)n(C)nc23)CN1C(=O)c1ccccc1-n1nccn1 [Example 106, 8-(((3R,6R)-1-(2-(2H-1,2,3-triazol-2-yl)benzoyl)-6-methylpiperidin-3-yl)oxy)-2-methyl-[1,2,4]triazolo[4,3-a]pyridin-3(2H)-one]",6.75
6,"C[C@@H]1CC[C@@H](Oc2nccn3c(C(F)F)cnc23)CN1C(=O)c1ccsc1-n1nccn1 [Example 40, (2-(2H-1,2,3-triazol-2-yl)thiophen-3-yl)((2R,5R)-5-((3-(difluoromethyl)imidazo[1,2-α]pyrazin-8-yl)oxy)-2-methylpiperidin-1-yl)methanone]",7.98
7,"Cc1cn2ccnc(O[C@@H]3CC[C@@H](C)N(C(=O)c4ccccc4CS(C)(=O)=O)C3)c2n1 [Example 12, ((2R,5R)-2-methyl-5-((2-methylimidazo[1,2-α]pyrazin-8-yl)oxy)piperidin-1-yl)(2-((methylsulfonyl)methyl)phenyl)methanone]",7.34
8,"C[C@@H]1CC[C@@H](Oc2nccn3nccc23)CN1C(=O)c1ccccc1-n1nccn1 [Example 69, (2-(2H-1,2,3-triazol-2-yl)phenyl)((2R,5R)-2-methyl-5-(pyrazolo[1,5-a]pyrazin-4-yloxy)piperidin-1-yl)methanone]",7.57
9,"C[C@@H]1CC[C@@H](Oc2nccn3c(C(F)F)cnc23)CN1C(=O)c1ccccc1-n1ncnn1 [Example 44, (2-(2H-tetrazol-2-yl)phenyl)((2R,5R)-5-((3-(difluoromethyl)imidazo[1,2-α]pyrazin-8-yl)oxy)-2-methylpiperidin-1-yl)methanone]",8.02
10,"Cc1cn2ccnc(O[C@@H]3CC[C@@H](C)N(C(=O)c4ccc(F)cc4-n4nccn4)C3)c2n1 [Example 10, (4-fluoro-2-(2H-1,2,3-triazol-2-yl)phenyl)((2R,5R)-2-methyl-5-((2-methylimidazo[1,2-α]pyrazin-8-yl)oxy)piperidin-1-yl)methanone]",7.51
11,"C[C@@H]1CC[C@@H](Oc2nccn3c(C(F)F)cnc23)CN1C(=O)c1cscc1-c1ncccn1 [Example 55, ((2R,5R)-5-((3-(difluoromethyl)imidazo [1,2-α]pyrazin-8-yl)oxy)-2-methylpiperidin-1-yl)(4-(pyrimidin-2-yl)thiophen-3-yl)methanone]",7.35
12,"C[C@@H]1CC[C@@H](Oc2nccn3nccc23)CN1C(=O)c1ccsc1-n1nccn1 [Example 70, (2-(2H-1,2,3-triazol-2-yl)thiophen-3-yl)((2R,5R)-2-methyl-5-(pyrazolo[1,5-a]pyrazin-4-yloxy)piperidin-1-yl)methanone]",8.01
13,"Cc1cn2ccnc(O[C@@H]3CC[C@@H](C)N(C(=O)c4cccnc4-c4ccccc4)C3)c2n1 [Example 17, ((2R,5R)-2-methyl-5-((2-methylimidazo [1,2-α]pyrazin-8-yl)oxy)piperidin-1-yl) (2-phenylpyridin-3-yl)methanone]",7.16
14,"C[C@@H]1CC[C@@H](Nc2nccn3nccc23)CN1C(=O)c1ccccc1-n1nccn1 [Example 86, (2-(2H-1,2,3-triazol-2-yl)phenyl)((2R,5R)-2-methyl-5-(pyrazolo[1,5-a]pyrazin-4-ylamino)piperidin-1-yl)methanone]",7.69
15,"Cc1cn2ccnc(O[C@@H]3CC[C@@H](C)N(C(=O)c4cccnc4OCC(F)(F)F)C3)c2n1 [Example 16, ((2R,5R)-2-methyl-5-((2-methylimidazo [1,2-α]pyrazin-8-yl)oxy)piperidin-1-yl) (2-(2,2,2-trifluoroethoxy)pyridin-3-yl)methanone]",7.47
16,"CCCc1ccccc1C(=O)N1C[C@H](Oc2nccn3ccnc23)CC[C@H]1C [Example 4, ((2R,5R)-5-(imidazo[1,2-a]pyrazin-8-yloxy)-2-methylpiperidin-1-yl)(2-propylphenyl)methanone]",7.50
17,"CCc1cnc2c(O[C@@H]3CC[C@@H](C)N(C(=O)c4ccccc4-n4nccn4)C3)nccn12 [Example 37, (2-(2H-1,2,3-triazol-2-yl)phenyl)((2R,5R)-5-((3-ethylimidazo[1,2-a]pyrazin-8-yl)oxy)-2-methylpiperidin-1-yl)methanone]",7.53
18,"C[C@@H]1CC[C@@H](Nc2nccc3ncn(C)c23)CN1C(=O)c1ccccc1-n1nccn1 [Example 100, (2-(2H-1,2,3-triazol-2-yl)phenyl)((2R,5R)-2-methyl-5-((3-methyl-3H-imidazo[4,5-c]pyridin-4-yl)amino)piperidin-1-yl)methanone]",7.02
19,"CC(C)c1cn2ccnc(O[C@@H]3CC[C@@H](C)N(C(=O)c4ccccc4-n4nccn4)C3)c2n1 [Example 20, (2-(2H-1,2,3-triazol-2-yl)phenyl)((2R,5R)-5-((2-isopropylimidazo[1,2-a]pyrazin-8-yl)oxy)-2-methylpiperidin-1-yl)methanone]",7.31
20,"Cc1cn2ccnc(O[C@@H]3CC[C@@H](C)N(C(=O)c4cccnc4OCC(F)F)C3)c2n1 [Example 15, (2-(2,2-difluoroethoxy)pyridin-3-yl)((2R,5R)-2-methyl-5-((2-methylimidazo[1,2-a]pyrazin-8-yl)oxy)piperidin-1-yl)methanone]",7.38
21,"C[C@@H]1CC[C@@H](Oc2nccn3nccc23)CN1C(=O)c1ccccc1C1(C#N)CC1 [Example 72, 1-(2-((2R,5R)-2-methyl-5-(pyrazolo[1,5-α]pyrazin-4-yloxy)piperidine-1-carbonyl)phenyl) cyclopropanecarbonitrile]",7.84
22,"C[C@@H]1CC[C@@H](Oc2nccn3nccc23)CN1C(=O)c1nccnc1-n1cccn1 [Example 80, (3-(1H-pyrazol-1-yl)pyrazin-2-yl)((2R,5R)-2-methyl-5-(pyrazolo[1,5-α]pyrazin-4-yloxy)piperidin-1-yl)methanone]",7.50
23,"C[C@@H]1CC[C@@H](Oc2nccn3ncc(Br)c23)CN1C(=O)c1ccccc1-n1nccn1 [Example 88, (2-(2H-1,2,3-triazol-2-yl)phenyl)((2R,5R)-5-((3-bromopyrazolo[1,5-a]pyrazin-4-yl)oxy)-2-methylpiperidin-1-yl)methanone]",8.14
24,"C[C@@H]1CC[C@@H](Oc2ccnc3ocnc23)CN1C(=O)c1ccccc1-n1ncnn1 [Example 92, (2-(2H-tetrazol-2-yl)phenyl)((2R,5R)-2-methyl-5-(oxazolo [5,4-b]pyridin-7-yloxy)piperidin-1-yl)methanone]",7.44
25,"C[C@@H]1CC[C@@H](Oc2cccn3nccc23)CN1C(=O)c1ccccc1-n1nccn1 [Example 90, (2-(2H-1,2,3-triazol-2-yl)phenyl)((2R,5R)-2-methyl-5-(pyrazolo[1,5-a]pyridin-4-yloxy)piperidin-1-yl)methanone]",6.90
26,"C[C@@H]1CC[C@@H](Nc2nccn3c(Cl)cnc23)CN1C(=O)c1ccccc1-c1ncccn1 [Example 31, ((2R,5R)-5-((3-chloroimidazo[1,2-a]pyrazin-8-yl)amino)-2-methylpiperidin-1-yl)(2-(pyrimidin-2-yl)phenyl)methanone]",7.63
